From US12577255B2, “MDM2-based modulators of proteolysis and associated methods of use” (Arvinas Operations, Inc., priority 2015, dated 2026)

What was measured:
MDM2 = target: T1, MDM2 (Homo sapiens, UniProt Q00987); test: Western blot of HCT116 cells, MDM2 level; assay type: cell-based; details: Western blot (FIG. 2, FIG. 3)
T1 construct: Western blot of HCT116 cells treated with chimeric molecules; endogenous in cells; host or cells: HCT116

[1] = system: p53^WT HCT-116 colon cancer cell lines; test: Cell growth assay; assay type: cell-based, human; details: p53^WT HCT-116 (FIG. 4)
[2] = target: T2, bromodomain-containing protein 4 (BRD4) (Homo sapiens, UniProt O60885); test: BRD4 Western blot (degradation); assay type: cell-based; details: at 1 μM; VCaP cells, 16 h
T2 construct: VCaP cells were chased from ATCC and cultured in Dulbecco's Modified Eagle's Medium; host or cells: VCaP
Experimental: The following biological assays were performed to evaluate the protein degradation in various cell types using representative compounds disclosed. The degradation of the following proteins were evaluated: bromodomain-containing protein 4 (BRD4), androgen receptor (AR), c-Myc, c-Jun N-terminal kinases (JNK), and enhancer of zeste homolog 2 (EZH2).
VCaP cells were chased from ATCC and cultured in Dulbecco's Modified Eagle's Medium (ATCC), supplemented with 10% FBS (ATCC) and Penicillin/Streptomycin (Life Technologies). DMSO control and compound treatments (0.03 μM to 1 μM) were performed in 12-well plates for 16 h. cells were harvested, and lysed in RIPA buffer (50 mM Tris pH8, 150 mM NaCl, 1% Tx-100, 0.1% SDS, 0.5% sodium deoxycholate) supplemented with protease and phosphatase inhibitors. Lysates were clarified at 16,000 g for 10 minutes, and protein concentration was determined. Equal amount of protein (20 μg) was subjected to SDS-PAGE analysis and followed by immunoblotting according to standard protocols. The antibodies used were BRD4 (Cell signaling #13440), and Actin (Sigma #5441). Detection reagents were Clarity Western ELC substrate (Bio-rad #170-5060).

BRD4 = BRD4 (Homo sapiens, UniProt O60885); test: Time course of BRD4 degradation in A549; assay type: cell-based; set-up: endogenous in cells; host or cells: A549; details: human lung cancer cell line A549 (FIG. 6)
p53 = test: Western blot of HCT116 cells, p53 level; assay type: cell-based, human; details: Western blot (FIG. 2, FIG. 3)

T1 sequence (Q00987 whole entry): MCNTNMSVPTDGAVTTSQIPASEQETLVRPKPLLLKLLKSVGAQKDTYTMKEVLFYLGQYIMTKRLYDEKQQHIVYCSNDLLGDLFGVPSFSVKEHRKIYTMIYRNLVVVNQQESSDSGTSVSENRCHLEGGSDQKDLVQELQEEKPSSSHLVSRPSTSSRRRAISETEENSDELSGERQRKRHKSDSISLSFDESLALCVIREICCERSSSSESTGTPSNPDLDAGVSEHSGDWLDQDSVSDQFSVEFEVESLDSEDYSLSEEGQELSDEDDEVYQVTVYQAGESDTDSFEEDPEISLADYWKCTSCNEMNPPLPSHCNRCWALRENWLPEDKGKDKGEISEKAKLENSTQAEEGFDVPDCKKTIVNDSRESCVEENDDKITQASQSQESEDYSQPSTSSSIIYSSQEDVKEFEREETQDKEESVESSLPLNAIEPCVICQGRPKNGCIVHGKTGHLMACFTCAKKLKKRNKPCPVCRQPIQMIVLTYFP

MDM2 up-regulation (MDM2): up-regulation of MDM2
Degradation activity BRD4 [2]: C (larger than 50% degradation at 1 μM)
BRD4 degradation, time course (BRD4): BRD4 degradation
Structure (SMILES): COc1cc(C(=O)NCCOCCOCCOCCOCCNC(=O)C[C@@H]2N=C(c3ccc(Cl)cc3)c3c(sc(C)c3C)-n3c(C)nnc32)ccc1NC(=O)[C@@H]1N[C@@H](CC(C)(C)C)[C@](C#N)(c2ccc(Cl)cc2F)[C@H]1c1cccc(Cl)c1F [Compound A1893, (2R,3S,4R,5S)-3-(3-chloro-2-fluorophenyl)-4-(4-chloro-2-fluorophenyl)-N-{4-[(14-{2-[(9S)-7-(4-chlorophenyl)-4,5,13-trimethyl-3-thia-1,8,11,12-tetraazatricyclo[8.3.0.0^2,^6]-trideca-2(6),4,7,10,12-pentaen-9-yl]acetamido}-3,6,9,12-tetraoxatetradecan-1-yl)carbamoyl]-2-methoxyphenyl}-4-cyano-5-(2,2-dimethylpropyl)pyrrolidine-2-carboxamide]
growth inhibition [1]: very potent growth inhibition
p53 level increase (p53): dose dependent p53 level increase
